According to patent US20240270801A1, “EPITOPE PEPTIDE OF HUMAN ALPHA-SYNUCLEIN AND PHARMACEUTICAL COMPOSITION INCLUDING SAID PEPTIDE” (Sumitomo Pharma Co., Ltd., priority 2021, published 2024):
Non-standard residues stand in square brackets, D forms with d. No end group written: not given here. KLH = keyhole limpet hemocyanin; Ahx = NCCCCCC(=O)O

Experiments:
human αSyn = assay: Antibody-inducing ability in mice: ELISA antibody titer of immune serum with respect to human αSyn; type: in vivo, mouse; design: key to Antibody titer with respect to human αSyn, relative to control: log titer relative to control conjugate (control = 1); conditions: for Antibody titer compared with control conjugate (in words): Example 9, mice, human αSyn and aggregated human αSyn, control AJ-p150 or AJ-p54; for Antibody titer with respect to human αSyn (N = 4 − 6, mean ± standard deviation): Example 2, balb/c mice, i.m. twice at 2-week interval, Alum, AJ conjugates 250 μg/mouse, KLH-DMPVDPDN 25 μg/mouse, serum 2 weeks after second administration
Experimental: (§1) Using the various AJ peptide-human αSyn peptide conjugates produced in Example 1, an antibody-inducing ability with respect to human αSyn in mice was evaluated. The various AJ-human αSyn peptide conjugates (250 μg/mouse) or KLH-DMPVDPDN (25 μg/mouse) in physiological saline were intramuscularly administered to balb/c mice (females, 6 weeks old, CLEA Japan, Inc.) twice at a 2-week interval for immunization using aluminum hydroxide (Alum) (InvivoGen, 50 μg/mouse) as an adjuvant. As a negative control, physiological saline (100 μL/mouse) comprising the same amount of aluminum hydroxide was administered twice. Two weeks after the second administration, serum was recovered to evaluate the antibody titer with respect to human αSyn by ELISA.
ELISA was performed by the following method. 96-well plates were coated with human αSyn (Sigma) at 0.2 μg/well. After washing with PBST (Phosphate Buffered Saline comprising 0.05% Tween) once, blocking was performed with 3% skim milk (FUJIFILM Wako Pure Chemical Corporation). After washing with PBST three times, diluted serum was added to cause a reaction at room temperature for 1 hour. Furthermore, after washing with PBST three times, Goat anti-mouse IgG-HRP (abcam) was added to cause a reaction at room temperature for 1 hour. After washing with PBST three times, SureBlue TMB Microwell Peroxidase Substrate (KPL) was added to cause a reaction at room temperature for 10 minutes while light shielding. An equal volume of a TMB Stop Solution (KPL) was added to stop the reaction, and the absorbance at 450 nm was measured. ELISA with respect to aggregated human αSyn was performed by coating with the aggregated human αSyn (Stress Marq) at 15 ng/well instead of human αSyn in the above-mentioned method. […]
The antibody-inducing ability of the produced various human αSyn peptide conjugates with respect to human αSyn and aggregated human αSyn in the mice was evaluated by the method described in Example 2 using the antibody titers with respect to human αSyn and aggregated human αSyn of the mouse immune serum. […] In Table 6, the antibody titer of AJ-p242, AJ-p244, AJ-p347, or AJ-p361 is shown with the antibody titer of AJ-p150 as a control being 1 (logarithm). In addition, the antibody titers of AJ-p229, AJ-p237, and AJ-p298 are shown with the antibody titer of AJ-p54 as a control being 1 (logarithm). […]

aggregated human αSyn = assay: Antibody-inducing ability in mice: ELISA antibody titer of immune serum with respect to aggregated human αSyn; type: in vivo, mouse; conditions: for Antibody titer with respect to aggregated human αSyn, relative to control: mice; for Antibody titer with respect to aggregated human αSyn (N = 4 − 6, mean ± standard deviation): Example 2, balb/c mice, i.m. twice at 2-week interval, Alum, AJ conjugates 250 μg/mouse, KLH-DMPVDPDN 25 μg/mouse, serum 2 weeks after second administration
Experimental: as §1
ELISA was performed by the following method. 96-well plates were coated with human αSyn (Sigma) at 0.2 μg/well. After washing with PBST (Phosphate Buffered Saline comprising 0.05% Tween) once, blocking was performed with 3% skim milk (FUJIFILM Wako Pure Chemical Corporation). After washing with PBST three times, diluted serum was added to cause a reaction at room temperature for 1 hour. Furthermore, after washing with PBST three times, Goat anti-mouse IgG-HRP (abcam) was added to cause a reaction at room temperature for 1 hour. After washing with PBST three times, SureBlue TMB Microwell Peroxidase Substrate (KPL) was added to cause a reaction at room temperature for 10 minutes while light shielding. An equal volume of a TMB Stop Solution (KPL) was added to stop the reaction, and the absorbance at 450 nm was measured. ELISA with respect to aggregated human αSyn was performed by coating with the aggregated human αSyn (Stress Marq) at 15 ng/well instead of human αSyn in the above-mentioned method.
The antibody-inducing ability of the AJ-human αSyn peptide conjugates (AJ-p54, AJ-p54-KLH, and AJ-DMPVDPDN) produced in Example 1 with respect to human αSyn and aggregated human αSyn in mice was evaluated. Physiological saline or the AJ-human αSyn peptide conjugate (250 μg/mouse) was intramuscularly administered to balb/c mice (females, 6 weeks old, CLEA Japan, Inc.) twice at a 2-week interval using Alum (InvivoGen, 50 μg/mouse) as an adjuvant. Furthermore, KLH-DMPVDPDN (25 μg/mouse) was administered using Alum (InvivoGen, 50 μg/mouse) as an adjuvant. Two weeks after the second administration, serum was recovered to evaluate the antibody titer by ELISA. ELISA was performed by the method described in Example 2.
The antibody-inducing ability of the produced various human αSyn peptide conjugates with respect to human αSyn and aggregated human αSyn in the mice was evaluated by the method described in Example 2 using the antibody titers with respect to human αSyn and aggregated human αSyn of the mouse immune serum. […] In Table 6, the antibody titer of AJ-p242, AJ-p244, AJ-p347, or AJ-p361 is shown with the antibody titer of AJ-p150 as a control being 1 (logarithm). In addition, the antibody titers of AJ-p229, AJ-p237, and AJ-p298 are shown with the antibody titer of AJ-p54 as a control being 1 (logarithm).
The antibody-inducing ability of the AJ-human αSyn peptide conjugates with a modified linker with respect to human αSyn and aggregated human αSyn in the mice was evaluated using the antibody titers with respect to human αSyn and aggregated human αSyn of the mouse immune serum. […] In Table 8, the antibody titers of the AJ-human αSyn peptide conjugates with various modified linkers comprising p54 are shown with the antibody titer of AJ-p54 as a control being 1 (logarithm). In addition, the antibody titers of the AJ-human αSyn peptide conjugates with various modified linkers comprising p150 are shown with the antibody titer of AJ-p150 as a control being 1 (logarithm).

[1] = Example 10, modified linker, titer of AJ-p54 or AJ-p150 as control being 1 (logarithm)
[2] = Example 10, modified linker, mice, titer of AJ-p54 or AJ-p150 as control being 1 (logarithm)
[3] = Example 9, N = 4, titer of AJ-p150 or AJ-p54 as control being 1 (logarithm)
[4] = Example 9, mice, N = 4, titer of AJ-p150 or AJ-p54 as control being 1 (logarithm)

With “KLH-C-KKDQLGKNE ({KLH}-CKKDQLGKNE) [KLH-p54, KLH-human αSyn peptide conjugate]” the “Induction of the antibody to human αSyn (in words)” value (human αSyn; Example 3, mice) was “the antibody to human αSyn was induced” and the “Antibody titer (N = 4 − 6, mean ± standard deviation) with respect to human αSyn” value (human αSyn; Example 3, mice, same manner as Example 2) was 4096 ± 2243.
With “ELKLIFLHRLKRLRKRLKRKGEAYEMPSEE [AJ-G-p150]” the “Antibody titer with respect to aggregated human αSyn, relative to control” value (aggregated human αSyn; [1]) was 0.95 and the “Antibody titer with respect to human αSyn, relative to control” value (human αSyn; [2]) was 0.96.
For “ELKLIFLHRLKRLRKRLKRKαKEAYEMPSEE [AJ-αK-p150]”, the “Antibody titer with respect to aggregated human αSyn, relative to control” value (aggregated human αSyn; [1]) was 1.05 and the “Antibody titer with respect to human αSyn, relative to control” value (human αSyn; [2]) was 0.95.
In the case of “ELKLIFLHRLKRLRKRLKRKXKKTQLGKNE (ELKLIFLHRLKRLRKRLKRK[Ahx]KKTQLGKNE) [AJ-p229]”, the “Antibody titer with respect to aggregated human αSyn, relative to control” value (aggregated human αSyn; [3]) is reported as 1.02, the “Antibody titer compared with control conjugate (in words)” value (human αSyn) is reported as “same level of an antibody titer” and the “Antibody titer with respect to human αSyn, relative to control” value (human αSyn; [4]) is reported as 0.92.
For “ELKLIFLHRLKRLRKRLKRKDDAKKKKDQLGKNE [AJ-DDAKK-p54]”, the “Antibody titer with respect to aggregated human αSyn, relative to control” value (aggregated human αSyn; [1]) was 0.98 and the “Antibody titer with respect to human αSyn, relative to control” value (human αSyn; [2]) was 1.03.
“ELKLIFLHRLKRLRKRLKRKXEAYEMPSEDG (ELKLIFLHRLKRLRKRLKRK[Ahx]EAYEMPSEDG) [AJ-p283, AJ peptide linked to p283 via ε-Acp (X)]” was tested, and the “Antibody-inducing ability regarding the aggregated human αSyn (in words)” value (aggregated human αSyn; Example 2, balb/c mice) was “particularly strong antibody-inducing ability”, the “Antibody titer with respect to aggregated human αSyn (N = 4 − 6, mean ± standard deviation)” value (aggregated human αSyn) was 1152 ± 644 and the “Antibody titer with respect to human αSyn (N = 4 − 6, mean ± standard deviation)” value (human αSyn) was 2304 ± 1289.
For “ELKLIFLHRLKRLRKRLKRKDDAKKEAYEMPSEE [AJ-DDAKK-p150]”, the “Antibody titer with respect to aggregated human αSyn, relative to control” value (aggregated human αSyn; [1]) was 1.30 and the “Antibody titer with respect to human αSyn, relative to control” value (human αSyn; [2]) was 1.14.
With “ELKLIFLHRLKRLRKRLKRKϵKKKKEAYEMPSEE [AJ-εKKKK-p150]” the “Antibody titer with respect to aggregated human αSyn, relative to control” value (aggregated human αSyn; [1]) was 1.00 and the “Antibody titer with respect to human αSyn, relative to control” value (human αSyn; [2]) was 0.97.
“ELKLIFLHRLKRLRKRLKRKXKKDQLGKND (ELKLIFLHRLKRLRKRLKRK[Ahx]KKDQLGKND) [AJ-p233]” was tested, and the “Antibody titer with respect to aggregated human αSyn (N = 4 − 6, mean ± standard deviation)” value (aggregated human αSyn) was 555 ± 377 and the “Antibody titer with respect to human αSyn (N = 4 − 6, mean ± standard deviation)” value (human αSyn) was 1323 ± 1505.
For “ELKLIFLHRLKRLRKRLKRKXAAYEMPSEEG (ELKLIFLHRLKRLRKRLKRK[Ahx]AAYEMPSEEG) [AJ-p242]”, the “Antibody titer with respect to aggregated human αSyn, relative to control” value (aggregated human αSyn; [3]) was 1.12, the “Antibody titer compared with control conjugate (in words)” value (human αSyn) was “same level of an antibody titer” and the “Antibody titer with respect to human αSyn, relative to control” value (human αSyn; [4]) was 1.06.
